PubChem BioAssay (NCI)
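Assay format: 96-well plates, 48-hour exposure. Abbreviation: GI50, concentration required for 50% inhibition of growth. TGI: concentration producing complete growth inhibition.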

Tests used:
Test in all cases: inhibition of tumour cell growth, NCI panel, 48 h
CAKI-1 renal = test system: CAKI-1 renal
HCT-15 colon = test system: HCT-15 colon
MALME-3M melanoma = test system: MALME-3M melanoma
NCI-H23 lung = test system: NCI-H23 lung
OVCAR-8 ovarian = test system: OVCAR-8 ovarian
RPMI-8226 leukemia = test system: RPMI-8226 leukemia
SNB-75 CNS = test system: SNB-75 CNS
KM12 colon = test system: KM12 colon
OVCAR-3 ovarian = test system: OVCAR-3 ovarian
SF-295 CNS = test system: SF-295 CNS

| Structure (SMILES) | TGI (CAKI-1 renal) | TGI (HCT-15 colon) | TGI (MALME-3M melanoma) | TGI (NCI-H23 lung) | TGI (OVCAR-8 ovarian) | TGI (RPMI-8226 leukemia) | TGI (SNB-75 CNS) | GI50 (CAKI-1 renal) | GI50 (HCT-15 colon) | GI50 (KM12 colon) | TGI (KM12 colon) | GI50 (MALME-3M melanoma) | GI50 (NCI-H23 lung) | GI50 (OVCAR-3 ovarian) | TGI (OVCAR-3 ovarian) | GI50 (OVCAR-8 ovarian) | GI50 (RPMI-8226 leukemia) | GI50 (SF-295 CNS) | TGI (SF-295 CNS) | GI50 (SNB-75 CNS) |
| --- | --- | --- | --- | --- | --- | --- | --- | --- | --- | --- | --- | --- | --- | --- | --- | --- | --- | --- | --- | --- |
| CC(C)c1ccccc1NC(=O)/C(Cl)=C1/Sc2ccccc2NC1=O | > 100 µM | > 100 µM | 80.7 µM | 70.8 µM | > 100 µM | 58.8 µM | 87.9 µM | – | – | – | – | – | – | – | – | – | – | – | – | – |
| Cn1cc(-c2csc(-c3cn(C)c4ccccc34)n2)c2cnccc21 | 9.12 µM | 3.2 µM | 3.61 µM | 3.44 µM | 6.7 µM | 4.06 µM | 16.9 µM | 2.58 µM | 1.51 µM | 1 µM | 2.48 µM | 2.01 µM | 1.64 µM | 2.16 µM | 4.13 µM | 2.68 µM | 1.76 µM | 1.63 µM | 3.07 µM | 4.08 µM |
| CCOC(=O)c1ccc(N[C@@H]2c3cc4c(cc3C(C3=CC(=O)C(=O)C(OC)=C3)[C@H]3C(=O)OCC32)OCO4)cc1 (stereo not given in full) | 11.5 µM | 7.82 µM | 11.2 µM | 4.21 µM | 15.9 µM | 66.8 µM | 9.04 µM | – | – | – | > 33.2 µM | – | – | – | 31.7 µM | – | – | – | 6.87 µM | – |
| CCCCCCCCCCN=C(c1ccc(N(C)C)cc1)c1ccc(N(C)C)cc1 | 64.3 µM | > 100 µM | 65.8 µM | > 75.4 µM | > 59.5 µM | 16.3 µM | 6.69 µM | 1.43 µM | 0.365 µM | 0.414 µM | > 75.8 µM | 16.6 µM | 1.58 µM | 0.428 µM | > 24.9 µM | 2.09 µM | 0.673 µM | 0.63 µM | 13.7 µM | 0.4 µM |
| COC1OC(C)C(OCc2ccccc2)C(OS(=O)(=O)c2ccc(C)cc2)C1OS(=O)(=O)c1ccc(C)cc1 (stereo not given) | > 100 µM | > 100 µM | > 100 µM | > 100 µM | > 100 µM | > 100 µM | > 100 µM | – | – | – | > 100 µM | – | – | – | > 100 µM | – | – | – | > 100 µM | – |
| Cc1c(C(=O)CSc2nc3ccccc3c(=O)n2-c2ccccc2)c(=O)n(-c2ccccc2)n1C | 0.729 µM | > 100 µM | > 100 µM | > 100 µM | – | > 100 µM | > 100 µM | – | – | – | > 100 µM | – | – | – | 73.5 µM | – | – | – | 66.2 µM | – |
| COc1cccc(/C=C2\CCC(C)(CN(C)C)C2=O)c1 (stereo not given) | > 100 µM | > 100 µM | > 100 µM | > 100 µM | > 100 µM | 68.1 µM | > 100 µM | – | – | – | > 100 µM | – | – | – | > 100 µM | – | – | – | > 100 µM | – |
| CCCCCCCCCCCCCCCCCCNC(=O)[C@H]1CSC(c2cccs2)N1 (stereo not given in full) | 2.09 µM | > 50 µM | 2.01 µM | 17.7 µM | 3.34 µM | 2.41 µM | 1.58 µM | 1.03 µM | 2.08 µM | 0.977 µM | 1.98 µM | 0.988 µM | 1.8 µM | 1.48 µM | 3.97 µM | 1.31 µM | 0.985 µM | 5.58 µM | > 50 µM | 0.811 µM |
| O=C1C=C(O)c2[nH]c(=O)ccc2C1=O | > 100 µM | > 100 µM | > 100 µM | > 100 µM | > 100 µM | > 100 µM | > 100 µM | – | – | – | – | – | – | – | > 100 µM | – | – | – | > 100 µM | – |
